# What was measured:
# [1] = Storage stability of the crystal forms (humidity, temperature, dry nitrogen); format: physicochemical; details: for conversion to hydrated or other crystalline forms on storage / stability under humid atmosphere / high relative humidity: stored at high, such as 75% or 90%, relative humidity in air at elevated temperature
# [2] = Water solubility of crystal forms; format: physicochemical
# [3] = Solubility in solvents; format: physicochemical
# [4] = tested on: psychosis and other neuropsychiatric disorders; details: in vivo; cited from earlier work
# [5] = tested on: schizophrenics; details: cited from earlier work
# [6] = tested on: Alzheimer's Disease patients; details: cited from earlier work
smiles,measurement,setting,value
"Clc1ccc2c(c1)N=C(N1CCNCC1)c1ccccc1N2 [8-chloro-11-(1-piperazinyl)-5H-dibenzo[b,e]-[1,4]diazepin]",stability of mixtures of crystal forms A and B,[1],very stable
"Clc1ccc2c(c1)N=C(N1CCNCC1)c1ccccc1N2 [Form A, 8-chloro-11-(1-piperazinyl)-5H-dibenzo[b,e]-[1,4]diazepin]",physical and chemical stability,[1]; form obtained at ambient temperatures,excellent physical and chemical stability properties
same,conversion to hydrated or other crystalline forms on storage,[1],does not convert to the hydrated forms or other crystalline forms
same,stability under humid atmosphere / high relative humidity,[1],very stable under humid atmosphere
same,water solubility,[2],better water solubility than crystal form B
"Clc1ccc2c(c1)N=C(N1CCNCC1)c1ccccc1N2 [Form B, 8-chloro-11-(1-piperazinyl)-5H-dibenzo[b,e]-[1,4]diazepin]",stability at elevated temperatures or under dry nitrogen,"[1]; elevated temperatures or dry nitrogen, loses its water and is transformed into Form D",unstable
same,stability under normal conditions,"[1]; normal conditions, ambient temperatures",very stable
same,conversion to hydrated or other crystalline forms on storage,[1],No conversion to other crystalline forms or hydrates was observed
same,stability under humid atmosphere / high relative humidity,[1],very stable hydrate
same,water solubility,[2],specially water soluble
"Clc1ccc2c(c1)N=C(N1CCNCC1)c1ccccc1N2 [Form D, 8-chloro-11-(1-piperazinyl)-5H-dibenzo[b,e]-[1,4]diazepin]",time to formation of Form B on contact with humidity,[1]; contacted with humidity,within hours
same,stability under exclusion of humidity,"[1]; exclusion of humidity, ambient temperature",stable
same,solubility in solvents,[3],satisfying solubility in solvents
"Clc1ccc2c(c1)N=C(N1CCNCC1)c1ccccc1N2 [NDMC, 8-chloro-11-(1-piperazinyl)-5H-dibenzo[b,e]-[1,4]diazepin]",effectiveness in the treatment of psychosis and other neuropsychiatric disorders,[4],effective in the treatment of psychosis and other neuropsychiatric disorders
CCCCCCOc1nsnc1C1=CCCN(C)C1 [Xanomeline],adverse motoric effects,[5]; initial clinical studies in schizophrenics,did not induce adverse motoric effects
same,efficacy in treating schizophrenia,[5]; schizophrenia,efficacious in treating schizophrenia
same,efficacy against positive and negative symptoms,[5]; schizophrenics,efficacy against both positive and negative symptoms
same,efficacy in controlling psychosis and related behavioral disturbances,[6],efficacy in controlling psychosis and related behavioral disturbances

# — US20060205714A1, “Method of synthesis and isolation of solid N-desmethylclozapine and crystalline forms thereof” (priority 2004, published 2006)
